Experimental data from article PMC6300130 (Journal of medicinal chemistry, 2018).
pIC50: −log10 of the molar value. Where “and” joins values, the source holds several entries; their conditions need not be identical. Identical values can stand only once. Like-named read-outs stand apart in the source and are kept apart here.

Assays:
P. falciparum strain 3D7 [1] = details: cited from earlier work
[2] = system: P. falciparum had1 mutant strain; details: cited from earlier work
[3] = system: P. falciparum had1 mutant strain; assay: Growth inhibition of had1 mutant P. falciparum; format: cell-based, Plasmodium falciparum; details: for sensitivity in had1 + HAD1-GFP strain: mutant supplied with wild-type copy of HAD1
P. falciparum strain 3D7 [4] = assay: IPP rescue of inhibitor-treated P. falciparum; format: cell-based, Plasmodium falciparum; details: 125 μM IPP, 72 h
HepG2 cells = assay: HepG2 cytotoxicity; format: cell-based, human; details: HepG2 IC50/P. falciparum IC50
[5] = Tolerability in mice during efficacy study; format: in vivo, mouse; details: 20 and 50 mg/kg ip daily for 5 days
[6] = system: MEP pathway metabolites in P. falciparum 3D7 parasites; assay: MEP pathway metabolite profiling by LC-MS/MS; format: cell-based, Plasmodium falciparum; details: 5× the IC50 value, 10 h
[7] = system: Mycobacterium tuberculosis (Mtb) DXR; details: cited from earlier work
Mtb = details: cited from earlier work
[8] = cited from earlier work

O=CN(O)CCCP(=O)([O-])O.[Na+] [1a, Fosmidomycin]
rescue of growth by exogenous IPP (P. falciparum strain 3D7 [1]): restoration effect | resistance of had1 parasites [2]: resistant

O=CN(O)C/C=C/P(=O)([O-])O.[Na+] [12a, Sodium Hydrogen [(1E)-3-(N-Hydroxyformamido)prop-1-en-1-yl]phosphonate]
sensitivity in had1 + HAD1-GFP strain [3]: restored | rescue of growth by exogenous IPP (P. falciparum strain 3D7 [4]): effectively rescues growth | SI^Pf selectivity index (HepG2 cells): > 2632

CC(=O)N(C/C=C/P(=O)([O-])O)OCc1ccc(C(C)C)cc1.[Na+] [16e]
resistance of had1 parasites compared with wild-type ([3]; words): more resistant | rescue of growth by exogenous IPP (P. falciparum strain 3D7 [4]): restored by IPP supplementation

CC(C)(C)C(=O)OCOP(=O)(/C=C/CN(O)C=O)OCOC(=O)C(C)(C)C [18a, [({[(2,2-Dimethylpropanoyl)oxy]methoxy}[(1E)-3-(N-hydroxyformamido)prop-1-en-1-yl]phosphoryl)oxy]methyl 2,2-Dimethylpropanoate]
sensitivity in had1 + HAD1-GFP strain [3]: restored | tolerability in mice [5]: no adverse effects were observed | rescue of growth by exogenous IPP (P. falciparum strain 3D7 [4]): effectively rescues growth | DOXP level, treated vs untreated parasites [6]: did not show significant difference

CC(=O)N(O)C/C=C/P(=O)([O-])O.[Na+] [compound 2]
increase in potency against Mtb DXR compared with FR900098 [7]: 2 fold | pIC50 ([7]; read-out: Mtb DXR IC50): 5.97

CC(=O)N(O)C/C=C/P(=O)(OCOC(=O)C(C)(C)C)OCOC(=O)C(C)(C)C [compound 3]
Mtb MIC99 (Mtb): 9.4 μg/mL and 22 μM | in vivo antimalarial activity [8]: potent in vivo antimalarial activity

CC(=O)N(CCCP(=O)(OCOC(=O)C(C)(C)C)OCOC(=O)C(C)(C)C)OCc1ccc2ccccc2c1 [compound 5]
Mtb MIC99 (Mtb): 18.75 μg/mL and 33.2 μM
